Entries after “also recorded” stand apart in the source; their conditions may differ.
System: PBMCs from healthy donors and cancer patients
Test: IFNγ ELISPOT of PBMCs pre-stimulated one week in vitro with peptide and low-dose IL-2
Assay type: cell-based, human
Details: for IFNγ ELISPOT response: ARG2 peptide library screen, PBMCs from 6 healthy donors, FIG. 3
Method: For in vitro ELISPOT, PBMCs from cancer patients and healthy donors were pulsed with 20 μM of […] (or with no peptide as a control) and 120 U/ml IL-2 in 24-well plates for 7 days before being used in an ELISPOT assay. The cells were placed in 96-well nitrocellulose ELISPOT plates (MultiScreen MAIP N45; Millipore) pre-coated with IFNγ capture antibody (Mabtech). Arginase peptides added to a final concentration of 5 μM and plates incubated at 37° C. for 14-16 hours. After the incubation the cells were washed off and secondary biotinylated Ab (Mabtech, cat. 3420-{6-1000) was added for 2 hours at room temperature. Unbound secondary antibody was washed off and streptavidin conjugated alkaline phosphatase (AP) (Mabtech, cat. 3310-10) was added for 1 hour at room temperature. Unbound conjugated enzyme was washed off and the assay was developed by adding BCIP/NBT substrate (Mabtech, cat. 3650-10). Developed ELISPOT plates were analyzed on CTL ImmunoSpot S6 Ultimate-V analyzer using Immunospot software v5.1. Responses were reported as the difference between average numbers of spots in wells stimulated with arginase2 and wells without added peptide.
To test whether these peptides could be used to identify Arginase2 responses, PBMCs from 12 healthy donors and one cancer patients were screened for responses in IFNγ ELISPOT. PBMCs were stimulated with Arginase2 peptides and low dose IL-2 for 1 week prior to ELISPOT.
The entire arginase2 protein sequence was divided into overlapping 20-amino-acid-long peptides (with a final peptide of 24 amino acids), generating a library of 34 peptides covering the whole sequence (SEQ ID NOs 1-34)). Each peptide in the library overlapped with the first 10 amino acids of the following peptide. Using this arginase2 peptide library and the IFNγ ELISPOT assay, we next screened PBMCs from 6 healthy donors for spontaneous responses. The PBMCs were stimulated for one week with a pool of 3-4 adjacent 20-mer arginase2 library peptides and low-dose IL-2 (120 U/mL). They were then set up for an IFNγ ELISPOT assay to screen for responses against each 20-mer peptide separately.
PBMCs from two healthy donors were stimulated for one week with a single peptide and low-dose IL-2 (120 U/mL) before IFNy ELISPOTassay to validate the responses observed in the library screen.
PBMCs from […] were stimulated for one week with a single peptide and low-dose IL-2 (120 U/mL) before IFNy ELISPOTassay to validate the responses observed in the library screen. ARG2_1, ARG2_5, ARG2_13, ARG2_18 and ARG2_22 were tested in this validation.
ARG2_1 was used to screen for responses in 8 melanoma patients (AA07-AA31), 4 prostate cancer patients (UR07-27) and 13 healthy donors. PBMCs from each were stimulated for one week with a single peptide and low-dose IL-2 (120 U/mL) before IFNy ELISPOT assay.
PBMCs from healthy donors or cancer patients were stimulated with 10 μM of ARG2-derived peptides in vitro to enhance assay sensitivity. On day 2, IL-2 was added to a total of 120 U/ml IL-2 (Novartis). After 7 days, 4-6×10^5 PBMCs were placed at the bottom of an ELISPOT plate pre-coated with IFNy capture antibody (Mabtech). PBMCs from each donor or patient were set up in triplicates or quadruplicates for peptide (5 μM ARG2-derived peptide) and control stimulations. Cells were incubated in ELISPOT plates in the presence of an antigen for 14-16 hrs after which they were washed off and secondary biotinylated antibody (Mabtech) was added. After two hour incubation the secondary antibody was washed off before addition of streptavidin conjugated alkaline phosphatase (Mabtech) for 1 hr. Next, unbound enzyme was washed off and the assay was developed by adding BCIP/NBT subtrate (Mabtech). Developed ELISPOT plates were analyzed on CTL Immunospot S6 Ultimate-V analyzer with ImmunoSpot software, version 5.1. […]

Sequence | donors with significant IFNy ELISPOT responses (8 melanoma patients, 4 prostate cancer patients and 13 healthy donors (15 out of 25), FIG. 8) | screened donors with significant IFNy ELISPOT responses (33 HDs and 19 cancer patients with solid tumors, FIG. 14A) | IFNγ ELISPOT response (listed as ARG2-1) | IFNγ ELISPOT response (listed as Arg2_1) | AML patients with a significant IFNy ELISPOT response (PBMCs from patients diagnosed with AML, FIG. 14A) | IFNy ELISPOT response (healthy donors and cancer patients, FIG. 14) | IFNy ELISPOT response (validation of other regions, PBMCs from four healthy donors, FIG. 5) | IFNy ELISPOT response (validation of other regions, PBMCs from four healthy donors, FIG. 5, listed as Arg2_1) | donors in which A2L2 immune responses were higher than ARG2-1 responses (6 healthy donors, not significant (p=0.0625), FIG. 15B) | IFNy ELISPOT response (30 healthy donors and 18 cancer patients, FIG. 15) | donors with IFNy ELISPOT responses (30 healthy donors and 18 cancer patients, FIG. 15C) | IFNy ELISPOT response to long peptides (PBMCs from 6 healthy donors stimulated once, FIG. 15A) | immune responses compared to ARG2-1 responses in the same donor (not significant (p=0.7038), FIG. 15E)
LQTRVHSILKKSVHSVAVIG (listed as Homo sapiens) [ARG2_1, polypeptide derived from human Arginase2, aa11-30] | 60% | around 75% | highest and most frequent responses | highest responses | 3 out of 9 | Strong and frequent responses; also recorded: widely recognized | Strong and prominent responses | strong and prominent responses | – | – | – | – | –
SLRGSLSRLLQTRVHSILKKSVHSVAVIGAPFS (listed as Homo sapiens) [A2L2, long ARG2 peptide, aa2-34, 33-mer] | – | – | – | – | – | – | – | – | 5 out of 6 | strong and frequent CD4+ T-cell responses | about 80% | strongest and most frequent immune responses | on average higher
